Values after ≈ are worked out from the molar mass of the structure shown.
Assays:
[1] = system: Katze; experiment: Blood pressure lowering in the anaesthetised cat, femoral artery pressure; type: in vivo; settings: for Abfall d. BD: Chloralose-Narkose; for Dauer: duration of the blood pressure lowering effect
From the text: 3 bis 4 kg schwere Katzen beider Geschlechter werden mit Äther anästhesiert und unter Chloralose-Narkose (70 mgkg i.v.) gehalten. Sowohl die Oberschenkel-Arterie als auch die -Vene werden zur Aufzeichnung des Blutdrucks bzw. zur Verabreichung der Arzneimittel mit Kanülen versehen. Der Blutdruck in der Oberschenkelarterie wird über einen Druckaufnehmer Statham P 23 Db auf einem Nihon-Kohden-Schreiber für physiologische Zwecke ausgezeichnet. Die zu prüfende Verbindung wird in destilliertem Wasser gelöst und intravenös verabreicht. Der Blutdruckabfall und die Dauer der blutdrucksenkenden Wirkung werden notiert.
(§1) Die bei diesem Modell für repräsentative erfindungsgemäße Verbindungen erhaltenen Ergebnisse sind in der nachfolgenden Tabelle aufgeführt: […]

[2] = system: Meerschweinchenvorhof; experiment: Positive inotropic activity, contraction force of isolated electrically stimulated guinea pig atrium; set-up: species or system Meerschweinchen; settings: isolated left and right atria, Ringer-Lösung, 32 C, contraction force recorded 7 bis 10 Minuten
From the text: Dafür wurde folgende Methode angewandt.
400 g schwere Meerschweinchen beider Geschlechter werden getötet, das Herz entnommen und bei Raumtemperatur in Ringer-Lösung eingebracht. Sowohl der linke als auch der rechte Vorhof werden dann isoliert, an einem Organhalter befestigt und in eine Ringer-Lösung enthaltendes, bei einer Temperatur von 32 C gehaltenes Bad eingebracht. In das Organbad läßt man ein Gemisch von 95 % O2 und 5 % C02 einperlen. Dann stimuliert man den Vorhof elektrisch. Die zu prüfende erfindungsgemäße Verbindung wird in Wasser zu einer Lösung bekannter Konzentration gelöst und dem Bad zugesetzt. Die Kontraktionskraft des Vorhofs wird 7 bis 10 Minuten lang über einen isometrischen Dehnungsmeßstreifen auf einem 4-Kanal-Schreiber von Nihon Kohden registriert. Die Aktivität wird gemäß den erhaltenen Daten als ECso ausgedrückt.
Die bei diesem Modell für repräsentative erfindungsgemäße Verbindungen erhaltenen Ergebnisse sind in der nachfolgenden Tabelle aufgeführt.

[3] = system: wachen Kaninchen; experiment: Intraocular pressure (IOD) measurement in the conscious rabbit, Schioetz tonometer; type: in vivo; settings: Dosis Prozent 2 (2 %ige Lösung, 100 µl instilled into one eye); for IOD-senkende Wirkung % Abnahme des IOD: decrease calculated from the baseline value; for IOD-senkende Wirkung Dauer: duration of the IOD-lowering effect
From the text: Für diesen Versuch werden 2 bis 3 kg schwere Kaninchen beider Geschlechter verwendet. Der intraokulare Druck (IOD) wird mit einem Schioetz-Tonometer nach Hornhaut-Anästhesie mit 2 %iger Novocainlösung gemessen. Zur Herstellung einer 2 %igen Lösung wird eine erfindungsgemäße Verbindung unter Verwendung der stöchiometrischen Menge 0,1 n-HCI, bzw. deren Salz direkt in Wasser gelöst. Nach Ermittlung des Ausgangswertes werden 100 u.l der Lösung der Testverbindung in eines der Augen, das Vehikel in das andere Auge instilliert. Der IOD wird in bestimmten Zeitabständen, d.h. 0,5; 1, 2, 3, 4 und 5 Stunden gemessen. Die prozentuale Abnahme des IOD wird anhand des Ausgangswertes berechnet.
as §1

## C=C[C@@]1(C)CC(=O)[C@]2(O)[C@@]3(C)[C@@H](O)CCC(C)(C)[C@@H]3[C@H](OC(=O)CCN3CCCCC3)[C@H](OC(=O)OCC)[C@@]2(C)O1 [R6=[drawing], R7=COOC2H5 (the 5th table, row 2)]
[1]; Dosis 1 mg/kg intravenös
  Abfall d. BD: 40
  Dauer: >20 min

## C=C[C@@]1(C)CC(=O)[C@]2(O)[C@@]3(C)[C@@H](O)CCC(C)(C)[C@@H]3[C@H](OC(=O)CN3CCCCC3)[C@H](OC(=O)N(CC)CC)[C@@]2(C)O1 [R6=COCH2N[drawing], R7=CON(C2H5)2]
[2]
  EC50: 0.44 µg/mL (≈ 0.742 µM)

## C=C[C@@]1(C)CC(=O)[C@]2(O)[C@@]3(C)[C@@H](O)CCC(C)(C)[C@@H]3[C@H](OC(=O)CCN3CCCCC3)[C@H](OC(=O)N(CC)CC)[C@@]2(C)O1 [R6=CO(CH2)2N[drawing], R7=CON(C2H5)2]
[2]
  EC50: 0.79 µg/mL (≈ 1.3 µM)

## C=C[C@@]1(C)CC(=O)[C@]2(O)[C@@]3(C)[C@@H](O)CCC(C)(C)[C@@H]3[C@H](OC(=O)CN3CCCCC3)[C@H](OC(=O)N(CC)CC)[C@@]2(C)O1 [R6=[drawing], R7=CON(C2H5)2 (the 5th table, row 5)]
[1]; Dosis 1 mg/kg intravenös
  Abfall d. BD: 50
  Dauer: 20 min

## C=C[C@@]1(C)CC(=O)[C@]2(O)[C@@]3(C)[C@@H](O)CCC(C)(C)[C@@H]3[C@H](OC(=O)CCN3CCCCC3)[C@H](OC(=O)N(CC)CC)[C@@]2(C)O1 [R6=[drawing], R7=CON(C2H5)2 (the 5th table, row 3)]
[1]; Dosis 1 mg/kg intravenös
  Abfall d. BD: 20
  Dauer: 60 min

## C=C[C@@]1(C)CC(=O)[C@]2(O)[C@@]3(C)[C@@H](O)CCC(C)(C)[C@@H]3[C@H](OC(=O)CN3CCCCC3)[C@H](OC(=O)N(CC)CC)[C@@]2(C)O1 [R6=[drawing], R7=CON(C2H5)2 (the 4th table, row 5)]
[3]
  IOD-senkende Wirkung % Abnahme des IOD: 20%
  IOD-senkende Wirkung Dauer: 420 min

## C=C[C@@]1(C)CC(=O)[C@]2(O)[C@@]3(C)[C@@H](O)CCC(C)(C)[C@@H]3[C@H](OC(=O)CCN3CCCCC3)[C@H](OC(=O)OCC)[C@@]2(C)O1 [R6=[drawing], R7=COOC2H5 (the 4th table, row 2)]
[3]
  IOD-senkende Wirkung % Abnahme des IOD: 20%
  IOD-senkende Wirkung Dauer: 300 min

## C=C[C@@]1(C)CC(=O)[C@]2(O)[C@@]3(C)[C@@H](O)CCC(C)(C)[C@@H]3[C@H](OC(=O)CN3CCCCC3)[C@H](OC(=O)OCC)[C@@]2(C)O1 [R6=[drawing], R7=COOC2H5 (the 4th table, row 4)]
[3]
  IOD-senkende Wirkung % Abnahme des IOD: 0%

## C=C[C@@]1(C)CC(=O)[C@]2(O)[C@@]3(C)[C@@H](O)CCC(C)(C)[C@@H]3[C@H](OC(=O)CN3CCCCC3)[C@H](OC(=O)OCC)[C@@]2(C)O1 [R6=COCH2N[drawing], R7=COOC2H5]
[2]
  EC50: 1.6 µg/mL (≈ 2.83 µM)

## C=C[C@@]1(C)CC(=O)[C@]2(O)[C@@]3(C)[C@@H](O)CCC(C)(C)[C@@H]3[C@H](OC(=O)CCN3CCCCC3)[C@H](OC(=O)N(CC)CC)[C@@]2(C)O1 [R6=[drawing], R7=CON(C2H5)2 (the 4th table, row 3)]
[3]
  IOD-senkende Wirkung % Abnahme des IOD: 25%
  IOD-senkende Wirkung Dauer: 360 min

## C=C[C@@]1(C)CC(=O)[C@]2(O)[C@@]3(C)[C@@H](O)CCC(C)(C)[C@@H]3[C@H](OC(=O)CN3CCCCC3)[C@H](OC(=O)OCC)[C@@]2(C)O1 [R6=[drawing], R7=COOC2H5 (the 5th table, row 4)]
[1]; Dosis 3 mg/kg intravenös
  Abfall d. BD: 60
  Dauer: 60 min
